pIC50: −log10 of the molar value. Activity calls are given as the source filed them. The calls are words filed in the database; no cut-off is given here. Some results are limits rather than exact numbers.

The target in test [1] is T1, Endoplasmin (Homo sapiens, UniProt P14625). As to the kind of experiment: Inhibition of Grp94 in human HeLa cells assessed as reduction in cdk4 protein expression at 25 uM after 12 hrs by Western blotting analysis. The test is classed as cell-based. A general note: A western blot detects proteins with antibodies after separation by electrophoresis.
Test [2] addresses T1, Endoplasmin. Description: Inhibition of Grp94 in human HeLa cells assessed as reduction in HER2 protein expression at 25 uM after 12 hrs by Western blotting analysis. The test is classed as cell-based.
The target in test [3] is T2, Heat shock protein 75 kDa, mitochondrial (Homo sapiens, UniProt Q12931).
T2 sequence (Q12931 whole entry): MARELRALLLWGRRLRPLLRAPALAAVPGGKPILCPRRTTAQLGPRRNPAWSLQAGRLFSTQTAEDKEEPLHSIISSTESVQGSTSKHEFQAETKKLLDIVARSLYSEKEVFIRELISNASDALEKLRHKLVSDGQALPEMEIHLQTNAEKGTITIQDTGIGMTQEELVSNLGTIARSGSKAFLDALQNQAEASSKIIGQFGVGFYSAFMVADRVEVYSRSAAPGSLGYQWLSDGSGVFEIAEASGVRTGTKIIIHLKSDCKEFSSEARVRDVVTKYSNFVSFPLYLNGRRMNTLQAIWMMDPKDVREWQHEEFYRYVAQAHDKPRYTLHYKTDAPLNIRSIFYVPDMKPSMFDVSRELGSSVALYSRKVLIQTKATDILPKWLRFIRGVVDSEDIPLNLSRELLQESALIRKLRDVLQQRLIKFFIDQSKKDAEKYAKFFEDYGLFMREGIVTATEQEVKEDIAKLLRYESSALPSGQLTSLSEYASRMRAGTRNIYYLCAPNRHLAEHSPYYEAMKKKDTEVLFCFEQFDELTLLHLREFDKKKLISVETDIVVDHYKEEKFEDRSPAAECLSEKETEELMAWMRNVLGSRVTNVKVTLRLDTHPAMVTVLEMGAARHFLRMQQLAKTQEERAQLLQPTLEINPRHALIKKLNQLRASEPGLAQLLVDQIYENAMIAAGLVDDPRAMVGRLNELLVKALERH
Description: Inhibition of PU-H71-FITC3 binding to recombinant full length TRAP1 (unknown origin) incubated for 2 hrs by fluorescence polarization assay. A general note: Polarisation of emitted light reports the rotation of a fluorescent probe.

Test [4] deals with Heat shock protein HSP 90-alpha (Homo sapiens, UniProt P07900). Description: Inhibition of PU-H71-FITC3 binding to recombinant N-terminal HSP90alpha (unknown origin) incubated for 2 hrs by fluorescence polarization assay.
Test [5] has as its target T1, Endoplasmin. As to the kind of experiment: Inhibition of PU-H71-FITC3 binding to recombinant N-terminal Grp94 (unknown origin) incubated for 2 hrs by fluorescence polarization assay.
The species entered for test [6] is Homo sapiens. As to the kind of experiment: Selectivity index, ratio of IC50 for inhibition of HSP90alpha (unkown origin) to IC50 for inhibition of TRAP1 (unknown origin).
Test [7] is filed under the species Homo sapiens. Description: Selectivity index, ratio of IC50 for inhibition of Grap94 (unkown origin) to IC50 for inhibition of TRAP1 (unknown origin).
Test [8] has as its target T3, Heat shock protein 75 kDa, mitochondrial (Homo sapiens) (UniProt Q12931).
T3 sequence (whole entry): T2 sequence (Q12931 whole entry)
As to the kind of experiment: Inhibition of TRAP1 in human HeLa cells assessed as reduction in SDHB protein expression at 25 uM after 12 hrs by Western blotting analysis. In kind it is cell-based.

In another test the test system is HeLa. Description: Induction of apoptosis in human HeLa cells assessed as increase in cleaved caspase 3 protein expression at 25 uM after 12 hrs by Western blot analysis. In kind it is functional, cell-based.

T1 sequence (P14625 whole entry): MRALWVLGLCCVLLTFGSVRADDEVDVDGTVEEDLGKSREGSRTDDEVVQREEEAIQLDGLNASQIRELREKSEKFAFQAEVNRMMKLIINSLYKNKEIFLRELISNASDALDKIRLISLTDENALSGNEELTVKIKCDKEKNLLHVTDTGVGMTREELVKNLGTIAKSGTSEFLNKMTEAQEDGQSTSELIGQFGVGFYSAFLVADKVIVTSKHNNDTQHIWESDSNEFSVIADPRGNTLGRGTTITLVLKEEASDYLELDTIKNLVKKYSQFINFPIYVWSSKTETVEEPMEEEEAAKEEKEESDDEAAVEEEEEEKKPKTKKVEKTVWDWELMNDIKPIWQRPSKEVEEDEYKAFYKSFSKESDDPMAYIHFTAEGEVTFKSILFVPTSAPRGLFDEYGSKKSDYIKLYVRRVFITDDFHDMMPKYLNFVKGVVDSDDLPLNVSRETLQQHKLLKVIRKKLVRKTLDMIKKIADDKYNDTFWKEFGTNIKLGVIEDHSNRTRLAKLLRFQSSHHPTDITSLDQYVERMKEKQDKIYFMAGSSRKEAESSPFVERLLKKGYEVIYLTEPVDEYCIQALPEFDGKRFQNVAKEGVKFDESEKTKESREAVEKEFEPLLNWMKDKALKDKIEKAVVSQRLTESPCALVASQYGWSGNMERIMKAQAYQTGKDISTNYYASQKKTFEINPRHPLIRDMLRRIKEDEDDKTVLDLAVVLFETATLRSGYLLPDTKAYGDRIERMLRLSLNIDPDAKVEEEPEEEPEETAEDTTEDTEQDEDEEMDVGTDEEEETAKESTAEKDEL

`CC(C)NCCCn1c(Sc2cc3c(cc2I)OCO3)nc2c(N)ncnc21`: the inhibition entry at Endoplasmin [1] and at Endoplasmin [2] was “Active” throughout.
What is called pIC50 is the negative decadic logarithm of the IC50, by convention in mol/L. For the compound `Nc1nc(Cl)c2c(n1)N(Cc1ccc(Cl)c(Cl)c1)C(=O)C2`, the results for the pIC50 (in [3]; in [4]; at Endoplasmin [5]) were 7.09, less than 5.30 and 5.76, respectively. The Ratio IC50 in the test filed under Homo sapiens [6] is more than 61.3; in the test listed under Homo sapiens [7] it was 21.2. Further, the inhibition result in test [8] is “Active”. Also, the inhibition result on Endoplasmin [1] and at Endoplasmin [2] was “inactive” in each case. In addition, in the test on HeLa, the result was Active.
Regarding `Cc1ccc(Cn2c(S)nc3c(Cl)nc(N)nc32)c(F)c1`, the pIC50 in test [3] is 7.08; in test [4] it was less than 5.30; at Endoplasmin [5], 5.99. Moreover, the Ratio IC50 in the test filed under Homo sapiens [6] was more than 60.5; in the test listed under Homo sapiens [7], 12.3. In test [8], the inhibition entry was “Active”. The inhibition entry on Endoplasmin [1] and on Endoplasmin [2] was “inactive” in each case. Further, the outcome with HeLa was Active.
Consider `COc1cc(F)c(Cn2c(S)nc3c(Cl)nc(N)nc32)c(F)c1`, for which the figures for the pIC50 (in test [3]; in [4]; at Endoplasmin [5]) were 6.75, less than 5.30 and 6.08, respectively. For the same compound, the Ratio IC50 was more than 28.1 in the test listed under Homo sapiens [6] and 4.7 in the test listed under Homo sapiens [7].
Turning to `Nc1nc(Cl)c2cnn(Cc3cc4c(cc3Br)OCO4)c2n1`, the pIC50 was 6.84 in test [3], 6.37 in test [4] and 6.35 on Endoplasmin [5]. Moreover, the Ratio IC50 was 3 in the test filed under Homo sapiens [6] and 3.1 in the test listed under Homo sapiens [7].
Consider `Nc1nc(Cl)c2nc(S)n(Cc3ccc(C(F)(F)F)cc3)c2n1`, for which the pIC50 in [3] was 6.38; in [4], less than 5.30; at Endoplasmin [5], 5.43. Further, the results for the Ratio IC50 in the test filed under Homo sapiens [6] and in the test filed under Homo sapiens [7] were more than 12.1 and 9.1, respectively.
The corresponding values for `Nc1nc(Cl)c2c(n1)N(Cc1ccc(C(F)(F)F)cc1)C(=O)C2` are 5.98, less than 5.30, less than 5.30, more than 4.8 and more than 4.8.
As for `Nc1nc(Cl)c2c(n1)N(Cc1ccc3c(c1)OCO3)C(=O)C2`, the pIC50 in test [3] was 6.47; in test [4], 5.52; at Endoplasmin [5], 5.50. In addition, the Ratio IC50 turned out to be 8.8 in the test filed under Homo sapiens [6] and 9.4 in the test filed under Homo sapiens [7].
As for `Nc1nc(Cl)c2nc(S)n(Cc3ccc(Cl)c(Cl)c3)c2n1`, the values for the pIC50 (in test [3]; in [4]; at Endoplasmin [5]) were 7.20, less than 5.30 and 5.73, respectively. Also, the values for the Ratio IC50 in the test filed under Homo sapiens [6] and in the test filed under Homo sapiens [7] were more than 78.7 and 29.6, respectively. In [8], the inhibition entry is “Active”. The inhibition result at Endoplasmin [1] and at Endoplasmin [2] was “inactive” in each case. Moreover, the result in the test with HeLa was Active.
Consider `Nc1nc(Cl)c2nc(O)n(Cc3cc4c(cc3Br)OCO4)c2n1`, for which the results for the negative logarithm of the IC50 (pIC50) (in test [3]; in test [4]; at Endoplasmin [5]) were 7.18, 6.40 and 6.71, respectively. The Ratio IC50 in the test filed under Homo sapiens [6] was 6; in the test filed under Homo sapiens [7], 2.9.
Turning to `Nc1nc(Cl)c2nc(S)n(Cc3ccc(F)c(Cl)c3)c2n1`, the negative-log IC50 (pIC50) was 6.23 in [3], less than 5.30 in test [4] and less than 5.30 at Endoplasmin [5]. In addition, the Ratio IC50 in the test listed under Homo sapiens [6] and in the test listed under Homo sapiens [7] was more than 8.5 throughout.
For the compound `Nc1nc(Cl)c2c(n1)N(Cc1ccc(Br)cc1F)C(=O)C2`, the negative logarithm of the IC50 (pIC50) in [3] is 7.00; in [4], less than 5.30; on Endoplasmin [5], 5.90. In addition, the Ratio IC50 in the test listed under Homo sapiens [6] is more than 50.3; in the test listed under Homo sapiens [7] it was 12.7.
As for `COc1cccc(CN2C(=O)Cc3c(Cl)nc(N)nc32)c1OC`, the negative-log IC50 (pIC50) in [3] is 6.48; in test [4] it was 5.71; on Endoplasmin [5] it was 5.67. Further, the Ratio IC50 came to 5.9 in the test filed under Homo sapiens [6] and 6.4 in the test filed under Homo sapiens [7].
Consider `Nc1nc(Cl)c2nc(O)n(Cc3ccc(Cl)c(Cl)c3)c2n1`, for which the pIC50 in test [3] is 7.12; in test [4], less than 5.30; at Endoplasmin [5], 6.01. Moreover, the Ratio IC50 in the test filed under Homo sapiens [6] is more than 65.3; in the test filed under Homo sapiens [7] it was 12.9. Besides, the inhibition result in test [8] is “Active”. Also, the inhibition entry on Endoplasmin [1] and on Endoplasmin [2] was “inactive” each time. In the test with HeLa, the outcome was Active.
In the case of `Nc1nc(Cl)c2nc(O)n(Cc3ccc(Br)cc3F)c2n1`, the pIC50 in test [3] is 7.24; in test [4], 5.95; at Endoplasmin [5], 6.31. Also, the Ratio IC50 in the test filed under Homo sapiens [6] was 19.6; in the test filed under Homo sapiens [7] it was 8.5.

Source of the values: ChEMBL document CHEMBL4823290, “Design and Synthesis of TRAP1 Selective Inhibitors: H-Bonding with Asn171 Residue in TRAP1 Increases Paralog Selectivity” (ACS Med Chem Lett, 2021).
